How the values were obtained:
Settings in all cases: Compound concentration 1.0 uM
[1] = molecular target: T1, Activin receptor type-1B (Homo sapiens) (UniProt P36896); assay: ALK4(h) Eurofins kinase panel
T1 sequence (whole entry): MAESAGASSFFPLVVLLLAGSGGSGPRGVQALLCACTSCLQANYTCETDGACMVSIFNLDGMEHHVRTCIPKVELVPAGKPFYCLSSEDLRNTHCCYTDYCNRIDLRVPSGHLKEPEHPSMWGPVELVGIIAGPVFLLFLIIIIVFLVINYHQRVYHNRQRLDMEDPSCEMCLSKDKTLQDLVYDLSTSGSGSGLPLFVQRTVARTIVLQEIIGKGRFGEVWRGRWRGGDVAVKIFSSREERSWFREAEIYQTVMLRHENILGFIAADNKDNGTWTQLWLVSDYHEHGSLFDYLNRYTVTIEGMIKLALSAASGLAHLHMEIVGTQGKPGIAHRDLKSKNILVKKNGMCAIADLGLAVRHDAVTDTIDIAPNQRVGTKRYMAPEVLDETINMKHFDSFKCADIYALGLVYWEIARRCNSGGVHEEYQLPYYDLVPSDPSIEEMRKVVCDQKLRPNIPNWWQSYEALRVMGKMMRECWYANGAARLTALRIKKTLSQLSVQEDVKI

[2] = molecular target: Mitogen-activated protein kinase 8 (Homo sapiens) (UniProt P45983); assay: JNK1alpha1(h) Eurofins kinase panel
Sequence of Mitogen-activated protein kinase 8 (Homo sapiens) (P45983 whole entry): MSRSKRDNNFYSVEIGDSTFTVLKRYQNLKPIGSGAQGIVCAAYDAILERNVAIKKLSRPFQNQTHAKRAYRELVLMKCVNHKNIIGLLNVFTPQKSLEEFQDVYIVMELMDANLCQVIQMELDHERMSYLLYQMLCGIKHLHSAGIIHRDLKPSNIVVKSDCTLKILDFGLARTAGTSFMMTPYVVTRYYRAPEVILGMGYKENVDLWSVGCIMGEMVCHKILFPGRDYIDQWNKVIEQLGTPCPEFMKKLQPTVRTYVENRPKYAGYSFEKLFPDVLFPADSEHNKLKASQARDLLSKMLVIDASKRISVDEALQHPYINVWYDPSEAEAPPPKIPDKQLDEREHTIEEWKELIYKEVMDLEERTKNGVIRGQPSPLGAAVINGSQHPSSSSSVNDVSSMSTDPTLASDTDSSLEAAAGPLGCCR

[3] = molecular target: Misshapen-like kinase 1 (Homo sapiens) (UniProt Q8N4C8); assay: MINK(h) Eurofins kinase panel
Sequence of Misshapen-like kinase 1 (Homo sapiens) (Q8N4C8 whole entry, looked up): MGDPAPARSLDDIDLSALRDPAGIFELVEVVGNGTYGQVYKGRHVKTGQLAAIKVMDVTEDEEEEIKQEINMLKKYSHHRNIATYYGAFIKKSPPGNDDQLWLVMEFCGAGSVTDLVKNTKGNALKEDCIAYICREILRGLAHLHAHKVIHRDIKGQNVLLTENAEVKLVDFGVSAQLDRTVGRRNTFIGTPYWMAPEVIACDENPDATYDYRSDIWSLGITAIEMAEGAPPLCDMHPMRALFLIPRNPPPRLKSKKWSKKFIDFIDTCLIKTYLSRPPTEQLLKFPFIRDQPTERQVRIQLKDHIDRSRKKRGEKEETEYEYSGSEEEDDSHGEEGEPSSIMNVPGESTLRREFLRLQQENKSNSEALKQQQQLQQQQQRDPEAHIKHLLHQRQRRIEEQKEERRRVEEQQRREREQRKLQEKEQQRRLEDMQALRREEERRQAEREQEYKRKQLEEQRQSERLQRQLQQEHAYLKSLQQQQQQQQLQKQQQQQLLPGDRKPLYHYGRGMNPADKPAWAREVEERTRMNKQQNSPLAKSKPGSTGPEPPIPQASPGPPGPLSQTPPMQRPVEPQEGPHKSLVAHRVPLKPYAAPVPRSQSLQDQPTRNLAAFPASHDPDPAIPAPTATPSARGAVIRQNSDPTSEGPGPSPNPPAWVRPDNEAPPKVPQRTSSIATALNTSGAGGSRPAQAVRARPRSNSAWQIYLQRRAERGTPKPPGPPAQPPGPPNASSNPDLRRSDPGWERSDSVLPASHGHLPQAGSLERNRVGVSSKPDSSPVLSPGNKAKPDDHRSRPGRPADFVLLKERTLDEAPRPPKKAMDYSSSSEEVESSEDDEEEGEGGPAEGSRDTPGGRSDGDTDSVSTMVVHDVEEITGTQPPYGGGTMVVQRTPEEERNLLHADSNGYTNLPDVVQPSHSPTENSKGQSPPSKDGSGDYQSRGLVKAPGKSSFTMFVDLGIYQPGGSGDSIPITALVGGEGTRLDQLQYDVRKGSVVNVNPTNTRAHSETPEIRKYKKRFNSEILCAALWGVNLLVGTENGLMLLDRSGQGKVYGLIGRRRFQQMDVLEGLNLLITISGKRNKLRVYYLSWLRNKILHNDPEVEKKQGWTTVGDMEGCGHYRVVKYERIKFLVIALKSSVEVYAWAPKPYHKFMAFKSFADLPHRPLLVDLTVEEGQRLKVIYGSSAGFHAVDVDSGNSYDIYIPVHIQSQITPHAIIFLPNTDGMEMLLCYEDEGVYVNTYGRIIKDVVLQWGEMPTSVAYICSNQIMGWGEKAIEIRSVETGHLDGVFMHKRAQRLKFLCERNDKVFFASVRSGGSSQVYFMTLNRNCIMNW

[4] = molecular target: T2, Serine/threonine-protein kinase Nek2 (Homo sapiens) (UniProt P51955); assay: NEK2(h) Eurofins kinase panel
T2 sequence (whole entry): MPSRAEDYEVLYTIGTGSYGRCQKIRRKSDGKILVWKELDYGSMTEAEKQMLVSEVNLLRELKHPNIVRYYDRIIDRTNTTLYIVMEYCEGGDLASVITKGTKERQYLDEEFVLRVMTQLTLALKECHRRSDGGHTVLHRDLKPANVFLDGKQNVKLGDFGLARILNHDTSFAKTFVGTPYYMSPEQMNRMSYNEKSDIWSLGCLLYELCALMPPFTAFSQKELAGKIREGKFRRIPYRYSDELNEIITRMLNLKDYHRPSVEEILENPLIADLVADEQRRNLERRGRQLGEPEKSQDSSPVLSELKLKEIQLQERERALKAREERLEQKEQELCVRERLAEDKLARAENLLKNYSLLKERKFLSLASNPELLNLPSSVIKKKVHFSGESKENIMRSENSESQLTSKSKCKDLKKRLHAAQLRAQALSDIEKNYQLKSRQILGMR

[5] = molecular target: Serine/threonine-protein kinase PAK 2 (Homo sapiens) (UniProt Q13177); assay: PAK2(h) Eurofins kinase panel
Sequence of Serine/threonine-protein kinase PAK 2 (Homo sapiens) (Q13177 whole entry): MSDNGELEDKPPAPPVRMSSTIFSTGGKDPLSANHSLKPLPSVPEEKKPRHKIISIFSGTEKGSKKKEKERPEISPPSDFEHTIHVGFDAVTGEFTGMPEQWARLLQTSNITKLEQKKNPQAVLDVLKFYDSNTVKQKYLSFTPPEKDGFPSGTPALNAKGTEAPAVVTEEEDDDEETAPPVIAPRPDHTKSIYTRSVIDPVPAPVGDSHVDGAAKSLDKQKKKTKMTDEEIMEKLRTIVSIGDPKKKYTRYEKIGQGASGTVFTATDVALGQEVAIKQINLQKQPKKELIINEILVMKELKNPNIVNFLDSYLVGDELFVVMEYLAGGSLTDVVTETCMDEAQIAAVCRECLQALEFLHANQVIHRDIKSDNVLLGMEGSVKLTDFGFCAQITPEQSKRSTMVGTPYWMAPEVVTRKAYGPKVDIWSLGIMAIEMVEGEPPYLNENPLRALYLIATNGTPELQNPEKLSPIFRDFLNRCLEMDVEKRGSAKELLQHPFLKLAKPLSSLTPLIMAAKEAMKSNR

[6] = molecular target: T3, Serine/threonine-protein kinase Sgk1 (Homo sapiens) (UniProt O00141); assay: SGK(h) Eurofins kinase panel
T3 sequence (whole entry): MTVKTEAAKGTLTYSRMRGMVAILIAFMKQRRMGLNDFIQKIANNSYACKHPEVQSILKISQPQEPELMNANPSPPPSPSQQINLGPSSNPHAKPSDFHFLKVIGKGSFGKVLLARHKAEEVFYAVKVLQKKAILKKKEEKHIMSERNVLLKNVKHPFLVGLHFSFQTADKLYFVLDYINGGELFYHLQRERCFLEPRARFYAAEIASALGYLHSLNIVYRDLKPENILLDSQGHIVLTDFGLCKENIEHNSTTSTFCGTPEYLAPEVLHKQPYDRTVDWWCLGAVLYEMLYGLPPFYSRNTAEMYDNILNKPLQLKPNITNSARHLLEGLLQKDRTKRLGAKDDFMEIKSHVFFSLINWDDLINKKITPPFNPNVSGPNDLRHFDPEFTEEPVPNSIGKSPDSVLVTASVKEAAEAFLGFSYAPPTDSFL

[7] = molecular target: Serine/threonine-protein kinase PLK2 (Homo sapiens) (UniProt Q9NYY3); assay: Snk(h) Eurofins kinase panel
Sequence of Serine/threonine-protein kinase PLK2 (Homo sapiens) (Q9NYY3 whole entry, looked up): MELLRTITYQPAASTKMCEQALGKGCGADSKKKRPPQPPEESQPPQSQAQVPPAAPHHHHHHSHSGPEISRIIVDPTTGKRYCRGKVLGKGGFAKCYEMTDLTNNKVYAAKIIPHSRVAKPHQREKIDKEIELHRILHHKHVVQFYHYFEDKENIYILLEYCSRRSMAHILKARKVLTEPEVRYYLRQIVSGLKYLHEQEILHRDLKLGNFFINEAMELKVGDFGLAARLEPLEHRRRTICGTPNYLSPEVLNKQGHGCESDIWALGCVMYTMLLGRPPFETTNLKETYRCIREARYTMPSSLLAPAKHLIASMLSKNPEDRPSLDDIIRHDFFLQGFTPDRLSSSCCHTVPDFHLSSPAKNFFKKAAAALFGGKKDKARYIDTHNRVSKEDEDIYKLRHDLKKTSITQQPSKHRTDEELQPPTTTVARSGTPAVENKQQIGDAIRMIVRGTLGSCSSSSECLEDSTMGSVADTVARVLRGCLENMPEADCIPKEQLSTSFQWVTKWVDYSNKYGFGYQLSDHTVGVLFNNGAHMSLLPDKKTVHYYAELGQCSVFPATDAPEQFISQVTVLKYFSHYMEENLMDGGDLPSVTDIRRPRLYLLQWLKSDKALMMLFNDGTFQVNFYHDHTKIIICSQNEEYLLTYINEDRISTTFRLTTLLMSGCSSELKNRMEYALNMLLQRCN

Measured: % residual kinase activity

CCc1ccccc1C(=O)Nc1n[nH]c2c(C)c(F)c(C3C(C#N)=C(C)N(C)C(C)=C3C#N)cc12 [BAY-3827]
inactive: [1] 90% | [2] 72% | [3] 99% | [4] 91% | [5] 105% | [6] 79% | [7] 100%
